Key:
wheat powdery mildew [1] = test: Fungicidal activity tests against wheat powdery mildew (wheat seedlings sprayed at 200 mg/L, greenhouse); format: in vivo; details: 200 mg/L spray, inoculated 24 hours later, visual assessment 7 days after treatment
Experimental: Compounds for test were weighed quantitatively and dissolved into acetone of suitable volume (acetone's volume is 10% of the whole solution's volume), then diluted by water containing 0.1% (volume percent, the same below) Tween 80, into 200 mg/L. By turntable crop sprayer, wheat seedlings with 1 leaf and 1 core were treated under the spray pressure of 1.5 kg/cm^2 and the spray volume of about 1000 L/hm^2, then naturally dry, 24 hours later wheat powdery mildew spore was inoculated, and then continue being incubated in greenhouse. Assessment of efficacy was carried out by visual observation 7 days later after treatment.

wheat powdery mildew [2] = test: Protective activity test against wheat powdery mildew; format: in vivo; details: for control %: protective, assessed 7 days later
wheat powdery mildew [3] = test: Curative activity test against wheat powdery mildew; format: in vivo; details: for control %: curative, sprayed 4 days after inoculation
Rice sheath blight = test: In vitro fungicidal activity test, PDA mycelium growth inhibition method; format: cell-based
Cucumber scab = test: as above; format: cell-based
Experimental: (§1) PDA mycelium growth inhibition method was used for this test. Compound 13 (content 95%) was weighed quantitatively and dissolved in acetone of suitable volume (acetone's volume is 10% of the whole solution's volume), then diluted with water containing 0.1% Tween 80 into the solution of the medicament at the needed concentration, and then diluted with the same water into a series of concentration for tests. The medicament for test diluted by water was added quantitatively into the heating full-nutrition culture medium, to form culture medium including the medicament at a series of concentration, and then poured into 9-cm culture dish, after cooling, inoculated with the pathogen cake (diameter 0.5 cm) for test which was incubated in vitro, each treatment was repeated tree times. After treatment, placed in growth chamber in 27° C., 3-4 days later, observe the growth of the blank contrast fungi colony, the diameter of fungi colony was investigated and measured, and corrected inhibition ratio was calculated.

Wheat root rot = test: as above; format: cell-based
Experimental: as §1

[4] = system: Wheat Fusarium Head Blight; test: microbe, parasite or virus in culture; format: cell-based; details: read-out: Effect of mycelium growth inhibition (%)
Cucumber wilt blight = test: In vitro fungicidal activity test, PDA mycelium growth inhibition method; format: cell-based; details: 27° C., 3-4 days, read-out: Effect of mycelium growth inhibition (%)
Cucumber anthracnose = test: as above; format: cell-based
Rice blast = test: microbe, parasite or virus in culture; format: cell-based
Rice false smut = test: In vitro fungicidal activity test, PDA mycelium growth inhibition method; format: cell-based
[5] = system: corn curvalaria leaf spot; test: as above; format: cell-based
[6] = 0.1 mg/L, 27° C., 3-4 days, read-out: Effect of mycelium growth inhibition (%)
[7] = 1 mg/L, 27° C., 3-4 days, read-out: Effect of mycelium growth inhibition (%)
[8] = 10 mg/L, 27° C., 3-4 days, read-out: Effect of mycelium growth inhibition (%)
[9] = Pyricularia oryzae, read-out: Effect of mycelium growth inhibition (%)

Q: Which “control %” value (wheat powdery mildew [1]) does the source give for `COC(=O)N(OC)c1ccccc1COc1nc(Cl)c(Cl)cc1Cl` [Compound 13, Methyl N-methoxy-N-(2-((3,5,6-trichloropyridin-2-yl)oxymethyl)phenyl)carbamate] here?
A: 100%

Q: And the control % (wheat powdery mildew [2]; concentration 0.78 mg/L)?
A: 100%

Q: What about the control % (wheat powdery mildew [2]; concentration 1.56 mg/L) of the same molecule?
A: 100%

Q: What about the control % (wheat powdery mildew [2]; concentration 3.125 mg/L) of the same molecule?
A: 100%

Q: What about the control % (wheat powdery mildew [2]; concentration 6.25 mg/L) of the same molecule?
A: 100%

Q: What about the control % (wheat powdery mildew [2]; concentration 12.5 mg/L) of the same molecule?
A: 100%

Q: And the “preventative activity compared with the standard chemical (in words)” value (wheat powdery mildew [2]; versus Kresoxim-methyl, 0.78-12.5 mg/L)?
A: obviously better than the one of the standard chemical

Q: What about the control % (wheat powdery mildew [3]; concentration 0.78 mg/L) of the same molecule?
A: 10%

Q: And the control % (wheat powdery mildew [3]; concentration 1.56 mg/L)?
A: 35%

Q: And the control % (wheat powdery mildew [3]; concentration 3.125 mg/L)?
A: 70%

Q: And the control % (wheat powdery mildew [3]; concentration 6.25 mg/L)?
A: 100%

Q: What about the control % (wheat powdery mildew [3]; concentration 12.5 mg/L) of the same molecule?
A: 100%

Q: And the “curative activity compared with the standard chemical (in words)” value (wheat powdery mildew [3]; versus kresoxim-methyl)?
A: better than the one of standard chemical

Q: What about the inhibition at 0.1 µg/mL (Rice sheath blight; Rice sheath blight, 0.1 mg/L, 27° C., 3-4 days, read-out: Effect of mycelium growth inhibition (%)) of the same molecule?
A: 42.7%

Q: What about the inhibition at 1 µg/mL (Rice sheath blight; Rice sheath blight, 1 mg/L, 27° C., 3-4 days, read-out: Effect of mycelium growth inhibition (%)) of the same molecule?
A: 59.2%

Q: And the inhibition at 10 µg/mL (Rice sheath blight; Rice sheath blight, 10 mg/L, 27° C., 3-4 days, read-out: Effect of mycelium growth inhibition (%))?
A: 78.6%

Q: And the “fungicidal activity (in words)” value (Rice sheath blight; rice sheath blight, in vitro)?
A: outstanding

Q: And the inhibition at 0.1 µg/mL (Cucumber scab; [6])?
A: 28.7%

Q: And the inhibition at 1 µg/mL (Cucumber scab; [7])?
A: 50%

Q: And the inhibition at 10 µg/mL (Cucumber scab; [8])?
A: 65%

Q: And the “fungicidal activity (in words)” value (Cucumber scab; in vitro)?
A: outstanding

Q: What about the inhibition at 0.1 µg/mL (Wheat root rot; Wheat root rot, 0.1 mg/L, 27° C., 3-4 days, read-out: Effect of mycelium growth inhibition (%)) of the same molecule?
A: 32.6%

Q: What about the inhibition at 1 µg/mL (Wheat root rot; Wheat root rot, 1 mg/L, 27° C., 3-4 days, read-out: Effect of mycelium growth inhibition (%)) of the same molecule?
A: 46.3%

Q: And the inhibition at 10 µg/mL (Wheat root rot; Wheat root rot, 10 mg/L, 27° C., 3-4 days, read-out: Effect of mycelium growth inhibition (%))?
A: 61.1%

Q: What about the “fungicidal activity (in words)” value (Wheat root rot; wheat root rot, in vitro) of the same molecule?
A: outstanding

Q: What about the inhibition at 0.1 µg/mL [4] of the same molecule?
A: 20.3%

Q: What about the inhibition at 1 µg/mL [4] of the same molecule?
A: 21.1%

Q: And the inhibition at 10 µg/mL [4]?
A: 42.9%

Q: What about the inhibition at 0.1 µg/mL (Cucumber wilt blight; 0.1 mg/L) of the same molecule?
A: 27.1%

Q: What about the inhibition at 1 µg/mL (Cucumber wilt blight; 1 mg/L) of the same molecule?
A: 33.6%

Q: And the inhibition at 10 µg/mL (Cucumber wilt blight; 10 mg/L)?
A: 51.4%

Q: And the inhibition at 0.1 µg/mL (Cucumber anthracnose; Cucumber anthracnose, 0.1 mg/L, 27° C., 3-4 days, read-out: Effect of mycelium growth inhibition (%))?
A: 42.8%

Q: And the inhibition at 1 µg/mL (Cucumber anthracnose; Cucumber anthracnose, 1 mg/L, 27° C., 3-4 days, read-out: Effect of mycelium growth inhibition (%))?
A: 62.8%

Q: What about the inhibition at 10 µg/mL (Cucumber anthracnose; Cucumber anthracnose, 10 mg/L, 27° C., 3-4 days, read-out: Effect of mycelium growth inhibition (%)) of the same molecule?
A: 72.4%

Q: What about the “fungicidal activity (in words)” value (Cucumber anthracnose; cucumber anthracnose, in vitro) of the same molecule?
A: outstanding

Q: What about the inhibition at 0.1 µg/mL (Rice blast; [9]) of the same molecule?
A: 36.6%

Q: What about the inhibition at 1 µg/mL (Rice blast; [9]) of the same molecule?
A: 62.6%

Q: What about the inhibition at 10 µg/mL (Rice blast; [9]) of the same molecule?
A: 77.2%

Q: And the “fungicidal activity (in words)” value (Rice blast; rice blast, in vitro)?
A: outstanding

Q: And the inhibition at 0.1 µg/mL (Rice false smut; Rice false smut, 0.1 mg/L, 27° C., 3-4 days, read-out: Effect of mycelium growth inhibition (%))?
A: 19.5%

Q: What about the inhibition at 1 µg/mL (Rice false smut; Rice false smut, 1 mg/L, 27° C., 3-4 days, read-out: Effect of mycelium growth inhibition (%)) of the same molecule?
A: 42.8%

Q: And the inhibition at 10 µg/mL (Rice false smut; Rice false smut, 10 mg/L, 27° C., 3-4 days, read-out: Effect of mycelium growth inhibition (%))?
A: 79.2%

Q: What about the “fungicidal activity (in words)” value (Rice false smut; rice false smut, in vitro) of the same molecule?
A: outstanding

Q: And the inhibition at 0.1 µg/mL [5, 6]?
A: 55.4%

Q: What about the inhibition at 1 µg/mL [5, 7] of the same molecule?
A: 56.2%

Q: What about the inhibition at 10 µg/mL [5, 8] of the same molecule?
A: 70.2%

Q: What about the “fungicidal activity (in words)” value ([5]; in vitro) of the same molecule?
A: outstanding

Q: And the melting point?
A: 94 to 95 °C

Q: With `COC(=O)N(OC)c1ccccc1CNc1c(Cl)c(F)nc(F)c1Cl` [Compound 49, Methyl N-(2-((3,5-dichloro-2,6-difluoropyridin-4-yl)aminomethyl)phenyl)-N-methoxycarbamate] as the molecule, how does the “control %” value (wheat powdery mildew [1]) read?
A: 85%

Q: What about the melting point of the same molecule?
A: 82 to 83 °C

Q: For `CO/N=C(/C(=O)OC)c1ccccc1COc1ccccc1C` [Kresoxim-methyl, reference compound], which control % (wheat powdery mildew [2]; concentration 0.78 mg/L) is on record?
A: 15%

Q: And the control % (wheat powdery mildew [2]; concentration 1.56 mg/L)?
A: 40%

Q: What about the control % (wheat powdery mildew [2]; concentration 3.125 mg/L) of the same molecule?
A: 70%

Q: And the control % (wheat powdery mildew [2]; concentration 6.25 mg/L)?
A: 98%

Q: And the control % (wheat powdery mildew [2]; concentration 12.5 mg/L)?
A: 100%

Q: And the control % (wheat powdery mildew [3]; concentration 0.78 mg/L)?
A: 0%

Q: And the control % (wheat powdery mildew [3]; concentration 1.56 mg/L)?
A: 10%

Q: What about the control % (wheat powdery mildew [3]; concentration 3.125 mg/L) of the same molecule?
A: 15%

Q: What about the control % (wheat powdery mildew [3]; concentration 6.25 mg/L) of the same molecule?
A: 75%

Q: What about the control % (wheat powdery mildew [3]; concentration 12.5 mg/L) of the same molecule?
A: 100%
